Data set [1] concerns s.c. PANC-1 human pancreatic carcinoma. The data set can be described thus: Subcutaneous PANC-1 human pancreatic cancer mouse model. It is filed as in vivo, SCID mice. How it is done: For establishing pancreatic tumor in experimental animals, PANC-1 cells were used, which were cultured in RPMI 1640 medium (Lonza), supplemented with 10% heat-inactivated FBS (Biosera, Nuaille, France), and 1% penicillin/streptomycin (Lonza). They were cultured in sterile T175 flasks (Sarstedt AG) with a ventilation cap at 37 °C in a humidified atmosphere with 5% CO2.
Pancreatic cancer (PANC-1) cells were injected into SCID male mice (22–34 g) subcutaneously (s.c.), 3 × 10^6 cells per animal in 200 µL M199 (Sigma-Aldrich) per animal. The (i.p.) administration of treatment started 10 days after cells inoculation when the average tumor volume was 36 mm^3. Four groups with 7 animals per group were established and treated. The doses and schedule were as follows: control group was treated with sterile water used for the solubilization of Dau and the conjugates, while animals in the group administered with free Dau were treated on days 10, 19 and 24 after cell inoculation with a dose of 1 mg/kg. Mice administered with the conjugate 4 were separated in two groups and treated either with a dose of 10 mg/kg Dau-content (21.6 mg/kg conjugate) or with a dose of 2 mg/kg Dau-content (4.3 mg/kg conjugate) on days 10, 13, 19, 21, 24, 28, 31, 34, 39, 42, 46, 49, 53, 56, 60, 63, 67 and 70 after cells inoculation. Animal weight and tumor volumes were measured initially when the treatment started and at periodic intervals according to the treatment schedule. A digital caliper was used to measure the longest (a) and the shortest diameter (b) of a given tumor. The tumor volume was calculated using the formula V = ab^2 × π/6, where a and b represent the measured parameters (length and width). The experiment was terminated on day 74 after cells inoculation (day 65 of treatment). Animals treated with free Dau had to be terminated after 3 treatments on day 28 after cells inoculation (day 19 of treatment) due to significant weight-loss. Animals were sacrificed by cervical dislocation; primary tumors and livers were harvested and weighted.

The test system of data set [2] is PANC-1 cells. The data set can be described thus: Flow cytometric cell surface binding and internalization. To be noted: 10^-5 M, flow cytometry, mean of 2 parallels ± SD. Format: cell-based, human. How it is done:
Cell surface binding and internalization of the conjugates were performed by flow cytometry (FACS-Calibur, Becton Dickinson, San Jose, CA, USA) based on the detection of the fluorescence activity of Dau (λex = 488 nm, λem = 585 nm) linked to the peptides. Studies of binding and uptake were performed on PANC-1 cells.
Cells were seeded (2.5 × 10^5 cells/mL, 900 μL/well) on 12-well plates, 24 h prior to the treatment with conjugates and free Dau. To distinguish the cell surface binding and internalization of conjugates, the cells were treated with the conjugate solutions at a final concentration of 10^−5 M at two temperatures (37 °C and 4 °C) in parallel. After the incubation period of 30 min, cells were washed with PBS and were removed from the plate using TrypLE (Thermo Fisher Scientific, Waltham, MA, USA) cell-dissociation reagent, thus avoiding cell surface protein degradation. […] After the centrifugation of the cell suspension, the cell pellets were resuspended in PBS (400 μL/tube) and the samples were measured by a flow cytometer.
To determine the fluorescence intensity and to evaluate the results CellQuest Pro (Becton Dickinson) and Flowing2.5.1. […] The instrument determines the relative fluorescence intensity of Dau built in the conjugates as geometric mean channel (GeoMean) value. […]

The conditions of data set [3]: in vivo; cited from earlier work. The text has this: Daunomycin (Dau) was applied as a payload. It was indicated in our previous research that Dau can be attached to peptides via oxime linkage easily with good yields. […] It might be because of the lower DNA binding affinity of the Dau containing metabolite compared to Dau. However, the oxime linked conjugates are stable in the circulation and no loss of Dau can be observed before reaching the target cells.

In data set [4] the test system is PANC-1 cells. The data set can be described thus: cells. Format: cell-based, human. How it is done: This measurement is based on the registration of electrical resistance (impedance, Z) in alternating current (AC) field. The living cells transplanted to the gold measuring electrodes are physically insulated by phospholipid bilayer that covers them. This instrumentally measurable property changes (decreases) in response to cellular cytotoxic agents. Our measurements were performed on xCELLigence single plate (ACEA Biosciences, San Diego, CA, USA) dedicated for impedimetric analysis of cellular samples at 37 °C and 5% CO2.
During the initial phase of the experiments—the baseline recording—a special 96-well cell culture plate, E-plate (ACEA Biosciences), equipped with measuring electrodes, was pretreated with freshly prepared cell culture medium (for 60 min; sampling frequency: 1 min). Subsequently, PANC-1 cells were plated at a cell density of 10^4 cells/well. During the 24 h incubation, the cells evenly covered the electrodes at the bottom of the wells of the E-plate. The resulting confluent cell cultures were then treated with the test substances at the following final concentrations: 10^−6, 10^−5, 10^−4 M. Total treatment duration was 72 h and the sampling rate was 1 min (0–24 h); and then 15 min (48–72 h). In our measurements, three replicates were used, the control was the drug-free medium. […] The CI results were analyzed with xCELLigence RTCA 2.0 software and Origin Pro 8.0 software.

The test system of data set [5] is PANC-1 cells. The data set can be described thus: Colorimetric (alamarBlue) cytotoxicity on PANC-1. Format: cell-based. To be noted: Homo sapiens, concentration needed to decrease the cell viability by 50%, read-out: IC50 (colorimetry). How it is done: (§1) The protocol for the alamarBlue-assay was similar to the method which was published earlier, with some minor modifications. Briefly, the cell seeding occurred on 96-well cell culture plates (Sarstedt AG, Nümbrecht, Germany) at 10^4 cells/well concentration. After a 24 h long culturing period, the treatment was carried out with the conjugates at 10^−4, 10^−5 and 10^−6 M final concentrations for 24, 48 and 72 h. In the next steps, the alamarBlue reagent (0.15 mg/mL, Sigma-Aldrich) dissolved in phosphate-buffered saline (PBS; pH = 7.2), was added to the wells. After 6 h incubation with the reagent, the fluorescence intensity of the samples was obtained by an LS-50B Luminescence Spectrometer (Perkin Elmer Ltd., Buckinghamshire, UK) or a Fluoroskan^TM FL Microplate Fluorometer and Luminometer (Thermo Scientific, Waltham, MA, USA) by using the following settings: λex = 560 nm and λem = 590 nm.
Three parallels were performed per treatment group. […] Fluorescence intensities of the samples treated with various concentrations of conjugates were expressed as a percentage of the fluorescence of control.
To confirm that the different methods can be used to compare the effects of conjugates on the different model cells, the cytotoxicity of Dau was measured by both impedimetric and colorimetric methods on PANC-1 cells.

A further data set deals with EBC-1 cells. It is filed as cell-based, human. To be noted: 1e-5 M. How it is done: (§2) EBC-1 and Colo-205 model cells have weak/negligible adherent properties, and A2058 cells could not produce constant cell index values. Therefore, a colorimetric assay (alamarBlue-assay) was chosen instead of the xCELLigence system to investigate the viability of these model cells treated with the conjugates. Due to the growth characteristics of NHDF cells, alamarBlue-assay was performed also on this cell line.
as §1
(§3) Three parallels were performed per treatment group. In the case of controls, an equivalent volume of cell culture media was added to the cell. Fluorescence intensities of the samples treated with various concentrations of conjugates were expressed as a percentage of the fluorescence of control.

Another data set has as its system Colo-205 cells. It is filed as cell-based, human. To be noted: 1e-5 M. How it is done: as §2, §1, §3
The next data set concerns A2058 cells. It is filed as cell-based, human. Conditions: 1e-5 M. How it is done:
as §2, §1, §3

The nature of data set [6]: Acute and chronic toxicity in healthy mice. It is filed as in vivo. Conditions: healthy Balb/c male mice, 3 per group; i.p.; acute 3.125, 6.25, 12.5, 25 mg/kg Dau-content single; chronic 10 mg/kg Dau-content on days 1, 3, 7, 9, 11; 14 days. How it is done:
Prior to the determination of in vivo antitumor activity, the acute and chronic toxicity studies of conjugate 4 (Dau=Aoa-GFLG-K(Dau=Aoa)-SKAAKN-OH) were investigated. Healthy Balb/c male mice (3 animals in each group with 29–33 g body weight) were used for these experiments. The conjugate was dissolved in sterile water for injection (Pharmamagist Kft., Budapest, Hungary) and injected in a volume of 0.1 mL/10 g body weight using the appropriate concentrations. In acute toxicity study, intraperitoneal (i.p.) administration of the conjugate 4 was carried out in 4 different doses: 3.125, 6.25, 12.5 and 25 mg/kg Dau-content. In chronic toxicity study, mice were treated with a dose of 10 mg/kg Dau-content of the conjugate on days 1, 3, 7, 9 and 11 (5 treatments). The toxicity was evaluated on the basis of life span, behavior and looking of the mice, as well as body weight. These parameters were followed for 14 days.

The structures appear in SMILES notation. Where a SMILES comes first, the peptide text is derived from it. The star is where a group is joined. Daunorubicin(13-NOCH2CO) = COc1cccc2c1C(=O)c1c(O)c3c(c(O)c1C2=O)C[C@@](O)(C(C)=NOCC(=O)*)C[C@@H]3O[C@H]1C[C@H](N)[C@H](O)[C@H](C)O1

For orientation: IC50 means the concentration that gives 50% inhibition. Consider `COc1cccc2c1C(=O)c1c(O)c3c(c(O)c1C2=O)C[C@@](O)(C(C)=O)C[C@@H]3O[C@H]1C[C@H](N)[C@H](O)[C@H](C)O1` [Dau, Daunomycin], for which the “Animal weight decrease compared to start of the experiment” value in data set [1] (free Dau 1 mg/kg i.p., 3 treatments, day 28 after cell inoculation) was 21%. Besides, the “Decrease of average liver/body weight ratio vs control” value in [1] (free Dau 1 mg/kg i.p., three times, day 28 after cell inoculation) stood at 29.1%. Further, the “Inhibition of tumor growth (tumor volume)” value in data set [1] (free Dau 1 mg/kg i.p., day 28 after cell inoculation (day 19 of treatment)) turned out to be 35.7%. Moreover, in data set [1] (free Dau 1 mg/kg, three treatments, day 28, relative to control), the “Liver / body weight (printed in Figure 9D, %)” value was determined as 70.9%. The “Relative fluorescence intensity (GeoMean values), Cellular uptake” value in the data set with PANC-1 cells [2] (30 min, GeoMean at 37 °C minus GeoMean at 4 °C) turned out to be 702.048 ± 84.340. Also, the “Relative fluorescence intensity (GeoMean values), Binding” value with PANC-1 cells [2] (30 min at 4 °C, Dau fluorescence, corrected for autofluorescence) came to 72.057 ± 3.907. Further, the “Maximum tolerated dose (MTD)” value in [3] was 1 to 2 mg/kg. For the same compound, the IC50 was determined as 189 nM in the data set with PANC-1 cells [4] (Homo sapiens, PANC-1, read-out: IC50 (impedimetry)) and 179 nM in the data set on PANC-1 cells [5].

Consider `COc1cccc2c1C(=O)c1c(O)c3c(c(O)c1C2=O)C[C@@](O)(C(C)=NOCC(=O)NCCCC[C@H](NC(=O)CNC(=O)[C@H](CC(C)C)NC(=O)[C@H](Cc1ccccc1)NC(=O)CNC(=O)CON=C(C)[C@]1(O)Cc2c(O)c4c(c(O)c2[C@@H](O[C@H]2C[C@H](N)[C@H](O)[C@H](C)O2)C1)C(=O)c1c(OC)cccc1C4=O)C(=O)N[C@@H](CO)C(=O)N[C@@H](CCCCN)C(=O)N[C@@H](C)C(=O)N[C@@H](C)C(=O)N[C@@H](CCCCN)C(=O)N[C@@H](CC(N)=O)C(=O)O)C[C@@H]3O[C@H]1C[C@H](N)[C@H](O)[C@H](C)O1` [conjugate 4, Dau=Aoa-GFLG-K(Dau=Aoa)SKAAKN-OH] ({Daunorubicin(13-NOCH2CO)}-GFLGK(Daunorubicin(13-NOCH2CO))SKAAKN-OH), for which the “Viability (%) at 10-5 M concentration, after 72 h incubation, EBC-1” value in the data set on EBC-1 cells is on record as 32.2 ± 4.2%. Moreover, the “Viability (%) at 10-5 M concentration, after 72 h incubation, Colo-205” value in the data set on Colo-205 cells came out at 19.8 ± 0.5%. The “Viability (%) at 10-5 M concentration, after 72 h incubation, A2058” value with A2058 cells is 29.8 ± 4.5%. Moreover, the “Cell viability at 10^−6 M” value in the data set with PANC-1 cells [4] (24 h, 1e-6 M) was “higher than 100%”. In addition, the “Viability after 24 h” value with PANC-1 cells [4] (24 h, 1e-5 M) came out at 91%. Moreover, the “Acute and chronic toxicity (body weight, general looking, behavior)” value in data set [6] is on record as “not toxic at the applied concentrations”.

Values taken from paper PMC7355684 (Pharmaceutics, 2020).
